Reference: patent US5776929A, “Benzodiazepine derivative” (Shionogi & Co., Ltd., priority 1993, dated 1998)

What was measured:
gastric acid secretion = assay: Inhibitory effect on gastric acid secretion by Schild method (pentagastrin-stimulated); type: in vivo, rat (male Sprague Dawley); conditions: intraduodenal, rat, read-out: Inhibitory Effect on acid secretion (Schild method), percent inhibition
Description: Evaluation of Inhibitory Effect on Gastric Acid Secretion by Schild Method
Twenty four hour starved (ad libitum for water) male Sprague Dawley rats (8-week-old) were anesthetized with urethane (1.5 g/kg S.C.) and kept breathing with esophagus cannulas. After laparotomy, esophagus cannulas were inserted orally up to proventriculus and ligated around gastric cardiac. Perfusion cannulas were inserted from duodenum into stomach and ligated around pylorus. Another cannulas were placed into duodenum and ligated for administration of drug. After sutra of abdomen, stomach was perfused via the esophagus cannulas with physiological saline (37° C.) while collecting perfusate for a 15 min interval. The perfusate was subjected to titration with 0.001 N NaOH solution to determine the acidity. When the basal acid secretion became stable, pentagastrin ([…]) was administered in a sustained manner via common carotid vein for about 90 min until the acid secretion reached approximately the highest level, when a test compound (0.5% M.C. suspension) was administered into duodenum through cannulas. The perfusate was collected for a 15 min interval to monitor the acid secretion for 90 min. The percent inhibition was calculated as follows:
Percent inhibition (%)=100×(A-B)/(C-B)
A: the minimum value of total acidity observed after the administration of a test compound;
B: the total acidity obtained immediately before the administration of pentagastrin; and
C: the total acidity obtained immediately before the administration of a test compound.

gastrin receptor = target: T1, gastrin receptor (Cavia porcellus, UniProt H0VZC5); assay: Gastrin receptor antagonism, displacement of 125I-labeled gastrin, gastric (fundic) gland cells; type: binding, guinea pig (male Hartley); conditions: guinea pig gastric glands, 125I-gastrin 0.2 nM, 30 min, 25 °C; read-out: Receptor Gastrin (IC50)
T1 construct: stomach was extracted from each animal immediately, from which gastric glands were prepared; from tissue; host or cells: gastric (fundic) glands of male Hartley guinea pigs
T1 sequence (H0VZC5 1-426): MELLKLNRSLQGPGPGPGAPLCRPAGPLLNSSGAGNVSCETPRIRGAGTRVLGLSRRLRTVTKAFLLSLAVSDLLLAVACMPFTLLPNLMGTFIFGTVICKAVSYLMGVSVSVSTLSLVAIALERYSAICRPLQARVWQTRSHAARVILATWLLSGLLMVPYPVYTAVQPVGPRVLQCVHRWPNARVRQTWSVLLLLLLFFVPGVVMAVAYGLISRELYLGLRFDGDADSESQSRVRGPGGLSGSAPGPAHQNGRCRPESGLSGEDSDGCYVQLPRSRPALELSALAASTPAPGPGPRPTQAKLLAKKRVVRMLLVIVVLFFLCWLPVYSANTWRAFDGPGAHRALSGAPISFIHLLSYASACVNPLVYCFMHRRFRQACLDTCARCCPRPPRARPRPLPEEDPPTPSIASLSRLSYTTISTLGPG
Description: (§1) Male Hartley guinea pig (450-600 g) or male ddY mouse (24-30 g) were used.
(1) Gastrin Receptor Antagonism
Preparation of gastric glands:
Male Hartley guinea pigs (450-600 g) were killed by bleeding and stomach was extracted from each animal immediately, from which gastric glands were prepared.
Preparation of test compounds and procedures of displacing assay
A 1M solution of a compound to be tested in DMSO is prepared and diluted with 50% DMSO to obtain a ten-fold dilution series.
The mixture is incubated for 30 min at 25° C., centrifuged at 2000 rpm for 5 min and the supernatant is removed by aspiration. To the pellet is added ice-cooled incubation buffer and mixed gently, followed by an immediate centrifugation and removal of the supernatant by aspiration. The radioactivity is counted on gamma counter. The same procedure was repeated using 50% DMSO solution or human gastrin I (final concentration, 2 μM) instead of a solution of test compound so as to obtain the control value regarding total binding or the value regarding non-specific binding, respectively. […]
(§2) specific binding of control=total binding (cpm)-non-specific binding (cpm); and specific binding of test compound=[…]-non-specific binding (cpm).

CCK-B receptor = target: T2, CCK-B receptor (Mus musculus, UniProt P56481); assay: CCK-B receptor antagonism, displacement of [3H]CCK-8, cerebral cortex crude membrane; type: binding, mouse (male ddY); conditions: mouse cerebral cortex membrane, [3H]CCK-8 1 nM, 90 min, 25 °C; read-out: Receptor CCK-B (IC50)
T2 construct: crude membrane specimen from mouse cerebral cortex; from tissue; host or cells: cerebral cortex of male ddY mice, crude membranes
T2 sequence (P56481 1-453): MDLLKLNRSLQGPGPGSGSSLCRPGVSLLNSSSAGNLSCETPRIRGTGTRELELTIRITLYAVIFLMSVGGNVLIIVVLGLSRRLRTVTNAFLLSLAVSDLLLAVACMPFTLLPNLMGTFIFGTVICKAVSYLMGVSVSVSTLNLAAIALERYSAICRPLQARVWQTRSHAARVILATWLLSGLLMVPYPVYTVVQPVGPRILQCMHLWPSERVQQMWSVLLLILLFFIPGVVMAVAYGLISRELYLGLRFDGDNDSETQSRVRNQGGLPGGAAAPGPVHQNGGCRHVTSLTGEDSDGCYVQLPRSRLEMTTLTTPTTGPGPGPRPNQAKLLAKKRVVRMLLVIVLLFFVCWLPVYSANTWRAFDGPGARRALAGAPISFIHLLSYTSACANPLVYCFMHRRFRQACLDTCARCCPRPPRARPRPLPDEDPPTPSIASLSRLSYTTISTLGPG
Description: as §1
(§3) (2) CCK-A Receptor Antagonism and CCK-B Receptor Antagonism
(§4) Preparation of CCK receptor preparations
(§5) Male ddY mice (24 to 30 g) were killed by decapitation and cerebral cortex (CCK-B) and pancreas (CCK-A) were extracted immediately. Each of cerebral cortex and pancreas was mixed with 50 mM Tris-HCl buffer (pH 7.4) and homogenized with a teflon-glass homogenizer and polytron homogenizer to obtain crude membrane specimens.
(§6) Preparation of test compounds and procedures of displacing assay A 1M solution of a compound to be tested in DMSO is prepared and diluted with 50% DMSO to obtain a ten-fold dilution series.
(§7) The reaction is initiated by the addition of crude membrane specimen to solutions of different concentration each containing [^3 H]CCk-8 (final concentration, 1 nM). The mixture is incubated for 90 min at 25° C., filtered through glass filter with aspiration and washed with a cooled 50 mM Tris buffer. After the addition of Aquazol-2 cocktail the radioactivity is counted. The same procedure was repeated using 50% DMSO solution or Ceruletide (final concentration, 1 μM) instead of a solution of test compound so as to obtain the control value regarding total binding or the value regarding non-specific binding, respectively. […]
as §2

CCK-A receptor = target: T3, CCK-A receptor (Mus musculus, UniProt O08786); assay: CCK-A receptor antagonism, displacement of [3H]CCK-8, pancreas crude membrane; type: binding, mouse (male ddY); conditions: mouse pancreas membrane, [3H]CCK-8 1 nM, 90 min, 25 °C; read-out: Receptor CCK-A (IC50)
T3 construct: crude membrane specimen from mouse pancreas; from tissue; host or cells: pancreas of male ddY mice, crude membranes
T3 sequence (O08786 1-436): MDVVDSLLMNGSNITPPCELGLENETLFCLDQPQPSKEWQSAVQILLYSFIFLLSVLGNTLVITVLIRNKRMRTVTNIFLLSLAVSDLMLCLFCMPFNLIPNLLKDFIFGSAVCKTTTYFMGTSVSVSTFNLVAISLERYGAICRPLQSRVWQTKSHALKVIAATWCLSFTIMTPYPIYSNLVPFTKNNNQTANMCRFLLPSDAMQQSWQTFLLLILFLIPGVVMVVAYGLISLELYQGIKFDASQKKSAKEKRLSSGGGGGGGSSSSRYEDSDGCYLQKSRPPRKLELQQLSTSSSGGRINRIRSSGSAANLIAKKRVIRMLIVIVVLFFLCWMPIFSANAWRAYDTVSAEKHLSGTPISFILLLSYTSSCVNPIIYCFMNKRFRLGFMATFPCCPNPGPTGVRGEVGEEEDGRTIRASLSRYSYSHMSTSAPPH
Description: as §1, §3, §4, §5, §6, §7, §2

| Structure (SMILES) | IC50 (gastrin receptor) | IC50 (CCK-B receptor) | IC50 (CCK-A receptor) | inhibition in vivo at 0.3 mg/kg (gastric acid secretion) | inhibition in vivo at 0.1 mg/kg (gastric acid secretion; 0.1 mg/kg) |
| --- | --- | --- | --- | --- | --- |
| O=C(O)CSc1cccc(NC(=O)NC2C(=O)N(CC(=O)C3CC3)c3ccccc3N(CC(=O)C3CC3)C2=O)c1 [Compound 17-ix, 1,5-Bis-(cyclopropylcarbonylmethyl)-3-(N'-(m-(carboxymethylthio)phenyl)ureido)-1H-l,5-benzodiazepine-2,4(3H,5H)-dione] | 0.6 nM | 2 nM | 500 nM | – | 74% |
| CCOC(=O)COc1cccc(NC(=O)NC2C(=O)N(CC(=O)C3CC3)c3ccccc3N(CC(=O)C3CC3)C2=O)c1 [Compound 17-v, 1,5-Bis-(cyclopropylcarbonylmethyl)-3-(N'-(m-(carboethoxymethoxy)phenyl)ureido)-1H-1,5-benzodiazepine-2,4(3H,5H)-dione] | 16 nM | 180 nM | 3600 nM | 59% | – |
| CCOC(=O)CSc1cccc(NC(=O)NC2C(=O)N(CC(=O)C3CC3)c3ccccc3N(CC(=O)C3CC3)C2=O)c1 [Compound 17-viii, 1,5-Bis-(cyclopropylcarbonylmethyl)-3-(N'-(m-(carboethoxymethylthio)phenyl)ureido)-1H-1,5-benzodiazepine-2,4(3H,5H)-dione] | 2 nM | 6 nM | 460 nM | 76% | – |
| Cc1cccc(NC(=O)NC2C(=O)N(CC(=O)c3ccccc3C)c3ccccc3N(CC(=O)c3ccccc3C)C2=O)c1 [Compound 8d, 1,5-Bis-(o-methylphenacyl)-3-{N'-(m-tolyl)-ureido}-1H-1,5-benzodiazepine-2,4(3H,5H)-dione] | 4 nM | 11 nM | 29 nM | 66% | – |
| CC(=O)NS(=O)(=O)c1cccc(NC(=O)NC2C(=O)N(CC(=O)C3CC3)c3ccccc3N(CC(=O)C3CC3)C2=O)c1 [Compound 17-xi, 1,5-Bis-(cyclopropylcarbonylmethyl)-3-(N'-(m-(acetylsulfamoyl)phenyl)ureido)-1H-1,5-benzodiazepine-2,4(3H,5H)-dione] | 6 nM | 115 nM | > 10000 nM | 39% | – |
| CC(C)S(=O)(=O)NC(=O)c1cccc(NC(=O)NC2C(=O)N(CC(=O)C3CC3)c3ccccc3N(CC(=O)C3CC3)C2=O)c1 [Compound 17-iii, 1,5-Bis-(cyclopropylcarbonylmethyl)-3-(N'-(m-(isopropylsulfonylaminocarbonyl)phenyl)ureido)-1H-1,5-benzodiazepine-2,4(3H,5H)-dione] | 6 nM | 190 nM | 11500 nM | 47% | – |
| Cc1cccc(NC(=O)NC2C(=O)N(Cc3cccc(N)c3)c3ccccc3N(Cc3cccc(N)c3)C2=O)c1 [Compound 8r] | 18 nM | 21 nM | 760 nM | 46% | – |

Now from value to compound, other results behind:

| IC50 (gastrin receptor) | IC50 (CCK-B receptor) | IC50 (CCK-A receptor) | Structure (SMILES) | inhibition in vivo at 0.3 mg/kg (gastric acid secretion) | inhibition in vivo at 0.1 mg/kg (gastric acid secretion; 0.1 mg/kg) |
| --- | --- | --- | --- | --- | --- |
| 7 nM | 29 nM | 10500 nM | O=C(O)Cc1cccc(NC(=O)NC2C(=O)N(CC(=O)N3CCCC3)c3ccccc3N(CC(=O)N3CCCC3)C2=O)c1 [Compound 18-xiii, 1,5-Bis-(pyrrolidinocarbonylmethyl)-3-(N'-(m-(carboxymethyl)phenyl)ureido)-1H-1,5-benzodiazepine-2,4(3H,5H)-dione] | 26% | – |
| 2 nM | 7 nM | 4800 nM | O=C(O)Cc1cccc(NC(=O)NC2C(=O)N(CC(=O)C3CC3)c3ccccc3N(CC(=O)C3CC3)C2=O)c1 [Compound 17-xiii, 1,5-Bis-(cyclopropylcarbonylmethyl)-3-(N'-(m-(carbomethyl)phenyl)ureido)-1H-1,5-benzodiazepine-2,4(3H,5H)-dione] | 21% | – |
| 15 nM | 48 nM | 2500 nM | COC(=O)Cc1cccc(NC(=O)NC2C(=O)N(CC(=O)C3CC3)c3ccccc3N(CC(=O)C3CC3)C2=O)c1 [Compound 17-xii, 1,5-Bis-(cyclopropylcarbonylmethyl)-3-(N'-(m-(carbomethoxymethyl)phenyl)ureido)-1H-1,5-benzodiazepine-2,4(3H,5H)-dione] | 48% | – |
